Where “and” joins values, the source holds several entries; their conditions need not be identical. Equal entries are not always repeated.
Biological target: T1, LRRK2 Ser935 phosphorylation in SH-SY5Y cells over-expressing recombinant full length LRRK2 (Homo sapiens, UniProt Q5S007)
T1 construct: A BacMam virus expressing full length recombinant LRRK2 was purchased from Invitrogen; host or cells: SH-SY5Y human neuroblastoma cells transduced with BacMam LRRK2 virus
Test: Recombinant cellular LRRK2 AlphaScreen assay
Format: cell-based
Details: human neuroblastoma SH-SY5Y cells, BacMam full length LRRK2, 60 minutes with compound, read-out: pIC50 in the recombinant cellular LRRK2 AlphaScreen assay (converted)
From the text: b. Recombinant Cellular LRRK2 AlphaScreen Assay
To determine the activity of compounds against LRRK2 kinase activity in cells, the observed LRRK2 kinase-dependent modulation of LRRK2 Ser 935 phosphorylation (Dzamko et al., 2010, Biochem. J. 430: 405-413) was utilized to develop a quantitative 384 well plate-based immunoassay of LRRK2 Ser935 phosphorylation in the human neuroblastoma cell line SH-SY5Y, engineered to over-express recombinant full length LRRK2 protein.
A BacMam virus expressing full length recombinant LRRK2 was purchased from Invitrogen and amplified by inoculation of SF-9 cells at MOI 0.3 for 4-5 days in Sf-900 III SFM medium supplemented with 3% fetal bovine serum. Infected cell cultures were then centrifuged at 2000 g for 20 minutes, viral supernatant titer determined by anti-gp64 plaque assay and stored at 4° C.
Affinity-purified anti-phospho LRRK2 Ser935 sheep polyclonal antibody (Dzamko et al., 2010, Biochem. J. 430: 405-413) was biotinylated by standard methods (PerkinElmer). Anti-LRRK2 rabbit polyclonal antibody was purchased from Novus Biologicals. AlphaScreen Protein A IgG Kit (including acceptor and donor beads) was purchased from Perkin Elmer.
SH-SY5Y cells were grown in DMEM/F12 medium with 10% dialysed fetal bovine serum and harvested by treatment with 0.5% trypsin-EDTA for 5 minutes at 37° C. followed by centrifugation at 1000 rpm for 4 minutes. The cell pellet was resuspended in Opti-MEM reduced serum media (Invitrogen) at 200,000 cells/ml and mixed with the BacMam LRRK2 virus at MOI=50. 50 μl cell solutions were then dispensed to each well of a 384-well plate and incubated at 37° C., 5% CO2 for 24 hours.
Serial dilutions of test compounds were prepared in Opti-MEM reduced serum media (Invitrogen) and 5.6 ul transferred from compound plate to cell assay plate to achieve a top final assay concentration of 10 uM. DMSO was used in certain wells as controls. Cells were incubated at 37° C., 5% CO2 for 60 minutes. The medium was then removed and cells lysed by addition of 20 ul cell lysis buffer (Cell Signaling Technology) and incubation at 4° C. for 20 minutes. 10 ul of antibody/acceptor bead mix [(1/1000 biotinylated-pS935 LRRK2 antibody, 1/1000 total-LRRK2 antibody, 1/100 Acceptor beads in AlphaScreen detection buffer (25 mM Hepes (pH 7.4), 0.5% Triton X-100, 1 mg/ml Dextran 500 and 0.1% BSA)] was then added to each well and plates incubated for 2 hours at ambient temperature in the dark. 10 μl of donor beads solution (1/33.3 donor beads in AlphaScreen detection buffer) was then added to each well. Following incubation for a further 2 hours at ambient temperature in the dark, plates were read on an EnVision™ plate reader at emission 520-620 nm with excitation 680 nm. Dose response curve data was based on sigmoidal dose-response model.

T1 sequence (Q5S007 whole entry): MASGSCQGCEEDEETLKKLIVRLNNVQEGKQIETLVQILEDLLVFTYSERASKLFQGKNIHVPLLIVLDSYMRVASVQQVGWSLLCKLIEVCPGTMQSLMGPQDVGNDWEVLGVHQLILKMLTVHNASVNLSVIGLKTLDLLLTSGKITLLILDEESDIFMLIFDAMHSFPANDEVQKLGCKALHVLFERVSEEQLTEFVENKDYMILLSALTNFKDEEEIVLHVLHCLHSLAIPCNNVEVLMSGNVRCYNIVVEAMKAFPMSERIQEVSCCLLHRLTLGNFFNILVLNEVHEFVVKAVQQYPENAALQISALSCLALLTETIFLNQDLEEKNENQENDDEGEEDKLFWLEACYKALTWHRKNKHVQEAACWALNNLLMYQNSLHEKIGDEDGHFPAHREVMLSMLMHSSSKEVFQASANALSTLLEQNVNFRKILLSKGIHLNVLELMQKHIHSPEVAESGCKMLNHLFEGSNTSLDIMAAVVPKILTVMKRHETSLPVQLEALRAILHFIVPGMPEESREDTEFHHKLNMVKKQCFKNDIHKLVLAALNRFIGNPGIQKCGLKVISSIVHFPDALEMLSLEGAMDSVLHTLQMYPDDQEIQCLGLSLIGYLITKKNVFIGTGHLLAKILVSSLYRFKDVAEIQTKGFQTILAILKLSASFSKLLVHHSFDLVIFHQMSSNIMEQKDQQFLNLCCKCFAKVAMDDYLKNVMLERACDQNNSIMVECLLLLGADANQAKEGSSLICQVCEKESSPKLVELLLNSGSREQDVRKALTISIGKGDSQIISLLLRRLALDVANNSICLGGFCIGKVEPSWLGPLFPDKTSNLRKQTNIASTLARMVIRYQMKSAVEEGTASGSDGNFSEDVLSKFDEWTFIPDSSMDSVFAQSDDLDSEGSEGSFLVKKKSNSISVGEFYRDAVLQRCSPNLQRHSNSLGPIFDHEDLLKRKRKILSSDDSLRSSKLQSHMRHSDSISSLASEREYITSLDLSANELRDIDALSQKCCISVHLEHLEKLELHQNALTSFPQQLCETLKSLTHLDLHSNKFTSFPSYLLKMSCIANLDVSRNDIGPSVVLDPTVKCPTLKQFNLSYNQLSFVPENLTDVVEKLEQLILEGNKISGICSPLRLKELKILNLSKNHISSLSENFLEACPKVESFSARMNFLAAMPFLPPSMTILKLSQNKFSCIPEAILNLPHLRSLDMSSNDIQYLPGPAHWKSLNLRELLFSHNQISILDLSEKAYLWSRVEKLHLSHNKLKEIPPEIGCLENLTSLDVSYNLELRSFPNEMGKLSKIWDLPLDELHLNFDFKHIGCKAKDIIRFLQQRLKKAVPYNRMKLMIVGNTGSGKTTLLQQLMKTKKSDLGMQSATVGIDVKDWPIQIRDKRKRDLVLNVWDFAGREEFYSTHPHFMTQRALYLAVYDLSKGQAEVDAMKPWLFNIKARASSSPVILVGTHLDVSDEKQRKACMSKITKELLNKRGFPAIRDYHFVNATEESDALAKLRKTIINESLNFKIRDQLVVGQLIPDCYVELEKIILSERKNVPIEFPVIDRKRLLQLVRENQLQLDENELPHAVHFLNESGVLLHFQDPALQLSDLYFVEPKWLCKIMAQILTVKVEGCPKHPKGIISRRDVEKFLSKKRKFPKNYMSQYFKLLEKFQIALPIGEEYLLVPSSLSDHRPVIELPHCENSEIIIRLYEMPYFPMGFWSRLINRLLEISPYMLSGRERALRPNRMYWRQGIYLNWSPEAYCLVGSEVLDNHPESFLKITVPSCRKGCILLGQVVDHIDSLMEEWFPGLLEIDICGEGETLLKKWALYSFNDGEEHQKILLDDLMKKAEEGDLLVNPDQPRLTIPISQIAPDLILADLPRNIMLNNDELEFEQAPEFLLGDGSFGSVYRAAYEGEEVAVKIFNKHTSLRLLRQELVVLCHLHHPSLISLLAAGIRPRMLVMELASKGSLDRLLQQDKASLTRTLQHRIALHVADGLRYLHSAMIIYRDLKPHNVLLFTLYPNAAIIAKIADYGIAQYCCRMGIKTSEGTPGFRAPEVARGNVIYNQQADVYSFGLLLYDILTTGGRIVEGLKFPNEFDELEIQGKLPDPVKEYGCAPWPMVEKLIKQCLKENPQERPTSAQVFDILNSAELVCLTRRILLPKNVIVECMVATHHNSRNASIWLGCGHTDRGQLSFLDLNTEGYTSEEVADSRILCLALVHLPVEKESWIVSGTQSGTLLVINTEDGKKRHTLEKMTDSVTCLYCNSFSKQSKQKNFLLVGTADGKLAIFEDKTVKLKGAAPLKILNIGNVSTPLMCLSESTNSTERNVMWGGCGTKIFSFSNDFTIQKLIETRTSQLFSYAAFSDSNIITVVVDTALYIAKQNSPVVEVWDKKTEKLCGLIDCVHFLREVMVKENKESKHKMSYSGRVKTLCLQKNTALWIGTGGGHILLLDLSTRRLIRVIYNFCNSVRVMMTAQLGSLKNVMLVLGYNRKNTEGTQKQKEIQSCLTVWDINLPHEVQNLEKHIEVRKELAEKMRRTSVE

Row | Compound | IC50
1 | Cc1nc(N2CC3(CO)CC2CO3)cc(-n2ncc3cc(C)c(C4CCN(C5CCOC5)CC4)cc32)n1 (single isomer, unassigned) [Example E153, (5-(2-methyl-6-(5-methyl-6-(1-(tetrahydrofuran-3-yl)piperidin-4-yl)-1H-indazol-1-yl)pyrimidin-4-yl)-2-oxa-5-azabicyclo[2.2.1]heptan-1-yl)methanol] | ≤ 1000 nM
2 | Cc1nc(N2C[C@H]3C[C@@H]2CO3)cc(-n2ncc3cc(C)c(C4CCN(CCC(=O)O)CC4F)cc32)n1 (single isomer, unassigned) [Example E155] | ≤ 1000 nM
3 | Cc1nc(N2C[C@@H]3C[C@H]2CO3)cc(-n2ncc3cc(C)c(C4CCN(CCC(=O)O)CC4F)cc32)n1 (single isomer, unassigned) [Example E157] | ≤ 1000 nM
4 | COc1nc(N2C[C@@H]3C[C@H]2CO3)cc(-n2ncc3cc(C)c(C4CCN(CCC(=O)O)CC4F)cc32)n1 (single isomer, unassigned) [Example E161] | ≤ 1000 nM
5 | Cc1nc(N2C[C@@]3(CO)C[C@@H]2CO3)cc(-n2ncc3cc(C)c(C4CCOCC4O)cc32)n1 (single isomer, unassigned) [Example E168, 4-(1-(6-(1-(hydroxymethyl)-2-oxa-5-azabicyclo[2.2.1]heptan-5-yl)-2-methylpyrimidin-4-yl)-5-methyl-1H-indazol-6-yl)tetrahydro-2H-pyran-3-ol] | ≤ 1000 nM
6 | Cc1nc(N2C[C@H]3C[C@@H]2CO3)cc(-n2ncc3cc(C)c(C4CCN(C5COCC5O)CC4)cc32)n1 (single isomer, unassigned) [Example E172] | ≤ 1000 nM
7 | COc1nc(N2C[C@H]3C[C@@H]2CO3)cc(-n2ncc3cc(C)c(C4CCN(C5COC5)CC4)cc32)n1 [Example E1, (1R,4R)-5-(2-methoxy-6-(5-methyl-6-(1-(oxetan-3-yl)piperidin-4-yl)-1H-indazol-1-yl)pyrimidin-4-yl)-2-oxa-5-azabicyclo[2.2.1]heptane] | ≤ 1000 nM and 20 nM
8 | COc1nc(N2C[C@@H]3C[C@H]2CO3)cc(-n2ncc3cc(C)c(C4CCN(C5COC5)CC4)cc32)n1 [Example E2, (1S,4S)-5-(2-methoxy-6-(5-methyl-6-(1-(oxetan-3-yl)piperidin-4-yl)-1H-indazol-1-yl)pyrimidin-4-yl)-2-oxa-5-azabicyclo[2.2.1]heptane] | ≤ 1000 nM
9 | COc1nc(N2C[C@H]3C[C@@H]2CO3)cc(-n2ncc3ccc(OC4(C)CC4)cc32)n1 [Example E3, (1R,4R)-5-(2-methoxy-6-(6-(1-methylcyclopropoxy)-1H-indazol-1-yl)pyrimidin-4-yl)-2-oxa-5-azabicyclo[2.2.1]heptane] | ≤ 1000 nM
10 | COc1nc(N2C[C@@H]3C[C@H]2CO3)cc(-n2ncc3ccc(OC4(C)CC4)cc32)n1 [Example E4, (1S,4S)-5-(2-methoxy-6-(6-(1-methylcyclopropoxy)-1H-indazol-1-yl)pyrimidin-4-yl)-2-oxa-5-azabicyclo[2.2.1]heptane] | ≤ 1000 nM
11 | COc1nc(N2C[C@H]3C[C@@H]2CO3)cc(-n2ncc3cc(Cl)c(C4CCN(C5COC5)CC4)cc32)n1 [Example E5, (1R,4R)-5-(6-(5-chloro-6-(1-(oxetan-3-yl)piperidin-4-yl)-1H-indazol-1-yl)-2-methoxypyrimidin-4-yl)-2-oxa-5-azabicyclo[2.2.1]heptane] | ≤ 10 nM
12 | COc1nc(N2C[C@@H]3C[C@H]2CO3)cc(-n2ncc3cc(Cl)c(C4CCN(C5COC5)CC4)cc32)n1 [Example E6, (1S,4S)-5-(6-(5-chloro-6-(1-(oxetan-3-yl)piperidin-4-yl)-1H-indazol-1-yl)-2-methoxypyrimidin-4-yl)-2-oxa-5-azabicyclo[2.2.1]heptane] | ≤ 1000 nM
13 | Cc1nc(N2C[C@@H]3C[C@H]2CO3)cc(-n2ncc3cc(C)c([C@H]4CC[C@@](C)(O)CC4)cc32)n1 [Example E7, Cis-4-(1-(6-((1S,4S)-2-oxa-5-azabicyclo[2.2.1]heptan-5-yl)-2-methylpyrimidin-4-yl)-5-methyl-1H-indazol-6-yl)-1-methylcyclohexanol] | ≤ 1000 nM
14 | Cc1nc(N2C[C@@H]3C[C@H]2CO3)cc(-n2ncc3cc(C)c([C@H]4CC[C@](C)(O)CC4)cc32)n1 [Example E8, Trans-4-(1-(6-((1S,4S)-2-oxa-5-azabicyclo[2.2.1]heptan-5-yl)-2-methylpyrimidin-4-yl)-5-methyl-1H-indazol-6-yl)-1-methylcyclohexanol] | ≤ 1000 nM
15 | Cc1nc(N2C[C@H]3C[C@@H]2CO3)cc(-n2ncc3cc(Cl)c(C4CCN(C5COC5)CC4)cc32)n1 [Example E25, (1R,4R)-5-(6-(5-chloro-6-(1-(oxetan-3-yl)piperidin-4-yl)-1H-indazol-1-yl)-2-methylpyrimidin-4-yl)-2-oxa-5-azabicyclo[2.2.1]heptane] | ≤ 1000 nM
16 | Cc1nc(N2C[C@@H]3C[C@H]2CO3)cc(-n2ncc3cc(Cl)c(C4CCN(C5COC5)CC4)cc32)n1 [Example E26, (1S,4S)-5-(6-(5-chloro-6-(1-(oxetan-3-yl)piperidin-4-yl)-1H-indazol-1-yl)-2-methylpyrimidin-4-yl)-2-oxa-5-azabicyclo[2.2.1]heptane] | ≤ 1000 nM
17 | COc1nc(N2C[C@H]3C[C@@H]2CO3)cc(-n2ncc3cc(C)c(C4CCN(CCO)CC4)cc32)n1 [Example E27, 2-(4-(1-(6-((1R,4R)-2-oxa-5-azabicyclo[2.2.1]heptan-5-yl)-2-methoxypyrimidin-4-yl)-5-methyl-1H-indazol-6-yl)piperidin-1-yl)ethanol] | ≤ 1000 nM
18 | COc1nc(N2C[C@@H]3C[C@H]2CO3)cc(-n2ncc3cc(C)c(C4CCN(CCO)CC4)cc32)n1 [Example E28, 2-(4-(1-(6-((1S,4S)-2-oxa-5-azabicyclo[2.2.1]heptan-5-yl)-2-methoxypyrimidin-4-yl)-5-methyl-1H-indazol-6-yl)piperidin-1-yl)ethanol] | ≤ 1000 nM
19 | Cc1nc(N2C[C@H]3C[C@@H]2CN3C2COC2)cc(-n2ncc3cc(C)c([C@H]4CC[C@@](C)(O)CC4)cc32)n1 [Example E29, Cis-1-methyl-4-(5-methyl-1-(2-methyl-6-((1R,4R)-5-(oxetan-3-yl)-2,5-diazabicyclo[2.2.1]heptan-2-yl)pyrimidin-4-yl)-1H-indazol-6-yl)cyclohexanol] | ≤ 1000 nM
20 | Cc1nc(N2CC3CC2CN3C2COC2)cc(-n2ncc3cc(C)c([C@H]4CC[C@@](C)(O)CC4)cc32)n1 (stereo partly drawn) [Example E30, Cis-1-methyl-4-(5-methyl-1-(2-methyl-6-((1S,4S)-5-(oxetan-3-yl)-2,5-diazabicyclo[2.2.1]heptan-2-yl)pyrimidin-4-yl)-1H-indazol-6-yl)cyclohexanol] | ≤ 1000 nM
21 | Cc1nc(N2C[C@H]3C[C@@H]2CN3C2COC2)cc(-n2ncc3cc(C)c([C@H]4CC[C@](C)(O)CC4)cc32)n1 [Example E31, Trans-1-methyl-4-(5-methyl-1-(2-methyl-6-((1R,4R)-5-(oxetan-3-yl)-2,5-diazabicyclo[2.2.1]heptan-2-yl)pyrimidin-4-yl)-1H-indazol-6-yl)cyclohexanol] | 1070 nM
22 | Cc1nc(N2C[C@@H]3C[C@H]2CN3C2COC2)cc(-n2ncc3cc(C)c([C@H]4CC[C@](C)(O)CC4)cc32)n1 [Example E32, Trans-1-methyl-4-(5-methyl-1-(2-methyl-6-((1S,4S)-5-(oxetan-3-yl)-2,5-diazabicyclo[2.2.1]heptan-2-yl)pyrimidin-4-yl)-1H-indazol-6-yl)cyclohexanol] | 1860 nM
23 | Cc1nc(N2C[C@@H]3C[C@H]2CO3)cc(-n2ncc3cc(Cl)c(N4CCC(C)(O)CC4)cc32)n1 [Example E33, 1-(1-(6-((1S,4S)-2-oxa-5-azabicyclo[2.2.1]heptan-5-yl)-2-methylpyrimidin-4-yl)-5-chloro-1H-indazol-6-yl)-4-methylpiperidin-4-ol] | ≤ 1000 nM
24 | Cc1nc(N2C[C@H]3C[C@@H]2CO3)cc(-n2ncc3cc(Cl)c(N4CCC(C)(O)CC4)cc32)n1 [Example E34, 1-(1-(6-((1R,4R)-2-oxa-5-azabicyclo[2.2.1]heptan-5-yl)-2-methylpyrimidin-4-yl)-5-chloro-1H-indazol-6-yl)-4-methylpiperidin-4-ol] | ≤ 1000 nM

Reference: patent US10858367B2, “Compounds” (GLAXOSMITHKLINE INTELLECTUAL PROPERTY DEVELOPMENT LIMITED, priority 2017, dated 2020)
